Series [1] concerns hQAPRTase. The settings on record: cited from earlier work.
Series [2] deals with the molecule itself. The series is described as follows: SEC.

On to `O=C(O)c1cccnc1C(=O)O` [QA, 2,3-pyridinedicarboxylic acid], for which the Km in series [1] was 22 µM. For the same molecule, the kcat in series [1] (recalculated from Vmax) is 0.04 s⁻¹.

B1: Quinolinic acid phosphoribosyltransferase from Mycobacterium tuberculosis H37Rv (recombinant, C-terminal 6xHis) (enzyme)
chain: MGLSDWELAAARAAIARGLDEDLRYGPDVTTLATVPASATTTASLVTREAGVVAGLDVALLTLNEVLGTNGYRVLDRVEDGARVPPGEALMTLEAQTRGLLTAERTMLNLVGHLSGIATATAAWVDAVRGTKAKIRDTRKTLPGLRALQKYAVRTGGGVNHRLGLGDAALIKDNHVAAAGSVVDALRAVRNAAPDLPCEVEVDSLEQLDAVLPEKPELILLDNFAVWQTQTAVQRRDSRAPTVMLESSGGLSLQTAATYAETGVDYLAVGALTHSVRVLDIGLDM
notes: also called MtQAPRTase; QAPRTase; not shown: His6, C-terminal, kept
With B1, the “stoichiometry N” value in series [2] was found to be 2.

In general, Km refers to the substrate concentration at which the rate is half of its maximum. One may read the kcat as the maximal rate divided by the concentration of active sites. What is called stoichiometry N is the number of molecules, sites or subunits per partner or assembly.

Source of the values: paper PMC4065032, “Biochemical Characterization of Quinolinic Acid Phosphoribosyltransferase from Mycobacterium tuberculosis H37Rv and Inhibition of Its Activity by Pyrazinamide” (PLoS ONE, 2014).
